# From publication PMC6130513, “In vitro inhibitory effects of Friedelin on human liver cytochrome P450 enzymes” (Pharmaceutical Biology, 2018)
# Key:
# CYP3A4 [1] = molecular target: T1, CYP3A4 (Homo sapiens, UniProt P08684); assay: CYP3A4 inhibition in pooled human liver microsomes (testosterone 6β-hydroxylation); format: in vitro ADME; conditions: pooled HLMs
# T1 construct: effects of Friedelin on CYP3A4 catalyzed reactions (testosterone 6β-hydroxylation) in pooled HLM; from tissue; host or cells: pooled human liver microsomes
# Experimental: (§1) All incubations were performed in triplicate, and the mean values were utilized. The typical incubation systems contained 100 mM potassium phosphate buffer (pH 7.4), NADPH generating system (1 mM NADP^+, 10 mM glucose-6-phosphate, 1 U/mL of glucose-6-phosphate dehydrogenase, and 4 mM MgCl2), the appropriate concentration of HLMs, a corresponding probe substrate and Friedelin (or positive inhibitor for different probe reactions) in a final volume of 200 μL.
# (§2) The concentration of Friedelin was 100 μM, and the positive inhibitor concentrations were as follows: 1 μM ketoconazole for CYP3A4, 10 μM furafylline for CYP1A2, 10 μM tranylcypromine for CYP2A6, 50 μM clomethiazole for CYP2E1, 10 μM quinidine for CYP2D6, 10 μM sulfaphenazole for CYP2C9, 50 μM tranylcypromine for CYP2C19, 5 μM montelukast for CYP2C8. Probe substrates, positive inhibitors (except for dextromethorphan and quinidine which were dissolved in water) and Friedelin were dissolved in methanol, with a final concentration of 1% (v/v) and 1% neat methanol was added to the incubations without inhibitor. There was a 3 min preincubation period (at 37 °C) before the reaction was initiated by adding an NADPH-generating system. The reaction was terminated by adding a 100 μL acetonitrile (10% trichloroacetic acid for CYP2A6) internal standard mix, and the solution was placed on ice. The mixture was centrifuged at 12,000 rpm for 10 min, and an aliquot (50 μL) of the supernatant was transferred for HPLC analysis. The instrument used in this study were Agilent 1260 series instrument with DAD and FLD detector, and the quantitative assay for the corresponding metabolites was performed as previously reported (Lang et al. [2016]; Zhang et al. [2017]).
# (§3) Friedelin (100 μM) was used to initially screen for its direct inhibitory effects toward different human CYP isoforms. […] Ki values were obtained by incubating various concentrations of different probe substrates (20–100 μM testosterone, 25–200 μM chlorzoxazone) in the presence of 0–50 μM Friedelin.
# (§4) The enzyme kinetic parameters for the probe reaction were estimated from the best fit line using least-squares linear regression of the inverse substrate concentration versus the inverse velocity (Lineweaver–Burk plots), and the mean values were used to calculate Vmax and Km. Inhibition data from the experiments that were conducted using multiple compound concentrations were represented by Dixon plots, and inhibition constant (Ki) values were calculated using nonlinear regression according to the following equation: v=(VmaxS)/(Km(1+I/Ki)+S), where I is the concentration of the compound, Ki is the inhibition constant, S is the concentration of the substrate, and Km is the substrate concentration at half the maximum velocity (Vmax) of the reaction. […]
# CYP1A2 = molecular target: T2, CYP1A2 (Homo sapiens, UniProt P05177); assay: CYP1A2 inhibition in pooled human liver microsomes (phenacetin O-demethylation); format: in vitro ADME; conditions: Friedelin 100 μM, pooled HLMs
# T2 construct: from tissue; host or cells: human liver microsomes
# T2 sequence (P05177 1-516): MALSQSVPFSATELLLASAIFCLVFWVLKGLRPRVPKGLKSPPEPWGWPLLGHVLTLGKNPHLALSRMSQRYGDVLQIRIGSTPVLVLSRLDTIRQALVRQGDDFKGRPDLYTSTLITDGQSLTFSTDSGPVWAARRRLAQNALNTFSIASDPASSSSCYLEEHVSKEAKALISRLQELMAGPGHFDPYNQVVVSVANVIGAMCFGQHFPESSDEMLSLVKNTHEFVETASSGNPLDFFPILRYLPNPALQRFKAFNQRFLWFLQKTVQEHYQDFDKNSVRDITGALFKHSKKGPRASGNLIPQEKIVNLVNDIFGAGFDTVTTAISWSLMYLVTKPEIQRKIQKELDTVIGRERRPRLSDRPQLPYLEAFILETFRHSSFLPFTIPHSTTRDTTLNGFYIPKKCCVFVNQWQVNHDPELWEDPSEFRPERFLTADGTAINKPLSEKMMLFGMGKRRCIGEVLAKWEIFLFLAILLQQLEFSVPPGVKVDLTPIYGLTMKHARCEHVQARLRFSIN
# Experimental: as §1
# as §2, with “There was a 3 min preincubation period (at 37 °C) before the reaction was initiated by adding an NADPH-generating system. The reaction was terminated by adding a 100 μL acetonitrile (10% trichloroacetic acid for CYP2A6) internal standard mix, and the solution was placed on ice. The mixture was centrifuged at 12,000 rpm for 10 min, and an aliquot (50 μL) of the supernatant was transferred for HPLC analysis.” left out, “[2017]). […]” for “[2017]).”
# CYP2A6 = molecular target: T3, CYP2A6 (Homo sapiens, UniProt P11509); assay: CYP2A6 inhibition in pooled human liver microsomes (coumarin 7-hydroxylation); format: in vitro ADME; conditions: Friedelin 100 μM, pooled HLMs
# T3 construct: from tissue; host or cells: human liver microsomes
# T3 sequence (P11509 1-494): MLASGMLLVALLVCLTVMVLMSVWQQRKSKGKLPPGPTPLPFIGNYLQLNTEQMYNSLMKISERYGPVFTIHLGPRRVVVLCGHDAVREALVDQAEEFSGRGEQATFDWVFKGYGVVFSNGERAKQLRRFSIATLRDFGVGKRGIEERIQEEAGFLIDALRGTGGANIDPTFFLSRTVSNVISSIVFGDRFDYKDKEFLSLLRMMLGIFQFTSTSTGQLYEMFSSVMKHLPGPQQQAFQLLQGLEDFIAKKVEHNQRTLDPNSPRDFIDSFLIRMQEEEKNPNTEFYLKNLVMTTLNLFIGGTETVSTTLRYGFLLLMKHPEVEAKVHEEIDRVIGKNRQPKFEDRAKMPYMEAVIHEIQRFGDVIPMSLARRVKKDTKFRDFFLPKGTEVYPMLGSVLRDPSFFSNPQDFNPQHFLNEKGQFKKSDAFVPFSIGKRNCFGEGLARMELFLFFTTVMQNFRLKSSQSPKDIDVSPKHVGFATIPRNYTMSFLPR
# Experimental: as §1
# as §2, with “There was a 3 min preincubation period (at 37 °C) before the reaction was initiated by adding an NADPH-generating system. The reaction was terminated by adding a 100 μL acetonitrile (10% trichloroacetic acid for CYP2A6) internal standard mix, and the solution was placed on ice. The mixture was centrifuged at 12,000 rpm for 10 min, and an aliquot (50 μL) of the supernatant was transferred for HPLC analysis.” left out, “[2017]). […]” for “[2017]).”
# CYP2E1 [2] = molecular target: T4, CYP2E1 (Homo sapiens, UniProt P05181); assay: CYP2E1 inhibition in pooled human liver microsomes (chlorzoxazone 6-hydroxylation); format: in vitro ADME; conditions: pooled HLMs
# T4 construct: effects of Friedelin on CYP2E1 catalyzed reactions (chlorzoxazone 6-hydroxylation) in pooled HLM; from tissue; host or cells: pooled human liver microsomes
# Experimental: as §1, §2, §3, §4
# CYP2D6 = molecular target: T5, CYP2D6 (Homo sapiens, UniProt P10635); assay: CYP2D6 inhibition in pooled human liver microsomes (dextromethorphan O-demethylation); format: in vitro ADME; conditions: Friedelin 100 μM, pooled HLMs
# T5 construct: from tissue; host or cells: human liver microsomes
# Experimental: as §1
# as §2, with “There was a 3 min preincubation period (at 37 °C) before the reaction was initiated by adding an NADPH-generating system. The reaction was terminated by adding a 100 μL acetonitrile (10% trichloroacetic acid for CYP2A6) internal standard mix, and the solution was placed on ice. The mixture was centrifuged at 12,000 rpm for 10 min, and an aliquot (50 μL) of the supernatant was transferred for HPLC analysis.” left out, “[2017]). […]” for “[2017]).”
# CYP2C9 = molecular target: T6, CYP2C9 (Homo sapiens, UniProt P11712); assay: CYP2C9 inhibition in pooled human liver microsomes (diclofenac 4'-hydroxylation); format: in vitro ADME; conditions: Friedelin 100 μM, pooled HLMs
# T6 construct: from tissue; host or cells: human liver microsomes
# Experimental: as §1
# as §2, with “There was a 3 min preincubation period (at 37 °C) before the reaction was initiated by adding an NADPH-generating system. The reaction was terminated by adding a 100 μL acetonitrile (10% trichloroacetic acid for CYP2A6) internal standard mix, and the solution was placed on ice. The mixture was centrifuged at 12,000 rpm for 10 min, and an aliquot (50 μL) of the supernatant was transferred for HPLC analysis.” left out, “[2017]). […]” for “[2017]).”
# CYP2C19 = molecular target: T7, CYP2C19 (Homo sapiens, UniProt P33261); assay: CYP2C19 inhibition in pooled human liver microsomes (S-mephenytoin 4-hydroxylation); format: in vitro ADME; conditions: Friedelin 100 μM, pooled HLMs
# T7 construct: from tissue; host or cells: human liver microsomes
# Experimental: as §1
# as §2, with “There was a 3 min preincubation period (at 37 °C) before the reaction was initiated by adding an NADPH-generating system. The reaction was terminated by adding a 100 μL acetonitrile (10% trichloroacetic acid for CYP2A6) internal standard mix, and the solution was placed on ice. The mixture was centrifuged at 12,000 rpm for 10 min, and an aliquot (50 μL) of the supernatant was transferred for HPLC analysis.” left out, “[2017]). […]” for “[2017]).”
# CYP2C8 = molecular target: T8, CYP2C8 (Homo sapiens, UniProt P10632); assay: CYP2C8 inhibition in pooled human liver microsomes (paclitaxel 6α-hydroxylation); format: in vitro ADME; conditions: Friedelin 100 μM, pooled HLMs
# T8 construct: from tissue; host or cells: human liver microsomes
# T8 sequence (P10632 1-490): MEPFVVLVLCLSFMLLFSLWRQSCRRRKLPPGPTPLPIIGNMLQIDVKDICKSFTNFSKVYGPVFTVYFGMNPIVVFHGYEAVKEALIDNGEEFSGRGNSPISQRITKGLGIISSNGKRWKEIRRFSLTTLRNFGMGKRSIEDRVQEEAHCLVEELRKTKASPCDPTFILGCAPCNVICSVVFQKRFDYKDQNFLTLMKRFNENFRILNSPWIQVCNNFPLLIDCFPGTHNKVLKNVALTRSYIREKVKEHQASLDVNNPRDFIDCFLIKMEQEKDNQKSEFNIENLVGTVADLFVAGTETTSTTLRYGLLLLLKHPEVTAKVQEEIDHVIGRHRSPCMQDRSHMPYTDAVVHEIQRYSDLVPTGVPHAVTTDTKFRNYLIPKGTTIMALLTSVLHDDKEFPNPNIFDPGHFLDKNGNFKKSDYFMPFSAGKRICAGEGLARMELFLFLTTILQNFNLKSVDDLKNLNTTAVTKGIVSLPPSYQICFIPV
# Experimental: as §1
# as §2, with “There was a 3 min preincubation period (at 37 °C) before the reaction was initiated by adding an NADPH-generating system. The reaction was terminated by adding a 100 μL acetonitrile (10% trichloroacetic acid for CYP2A6) internal standard mix, and the solution was placed on ice. The mixture was centrifuged at 12,000 rpm for 10 min, and an aliquot (50 μL) of the supernatant was transferred for HPLC analysis.” left out, “[2017]). […]” for “[2017]).”
# CYP3A4 [3] = molecular target: T1, CYP3A4; assay: Time-dependent inhibition study of CYP3A4 in human liver microsomes; format: in vitro ADME
# Experimental: (§5) To determine whether Friedelin could inhibit the activity of CYP3A4 and 2E1 in a time-dependent manner, Friedelin (20 μM) was preincubated with HLMs (1 mg/mL) in the presence of an NADPH-generating system for 30 min at 37 °C. After incubation, an aliquot (20 μL) was transferred to another incubation tube (final volume 200 μL) containing an NADPH-generating system and probe substrates whose final concentrations were approximate to Km. Then, further incubations were performed to measure the residual activity. After being incubated for different time (0–30 min), the reactions were terminated by adding a 100 μL acetonitrile internal standard mix and then placed on ice; the corresponding metabolites were determined by HPLC. To determine the Ki and kinact values for the inactivation of CYP3A4, the incubations were conducted using higher probe substrate concentrations (approximately 4-fold Km values) and various concentrations of Friedelin (0–50 μM) after different preincubation times (0–30 min), with a two-step incubation scheme, as described above.
# CYP2E1 [4] = molecular target: T4, CYP2E1; assay: Time-dependent inhibition study of CYP2E1 in human liver microsomes; format: in vitro ADME; conditions: Friedelin 20 μM, 30 min preincubation with HLM and NADPH
# Experimental: as §5, with “HPLC.” for “HPLC. To determine the Ki and kinact values for the inactivation of CYP3A4, the incubations were conducted using higher probe substrate concentrations (approximately 4-fold Km values) and various concentrations of Friedelin (0–50 μM) after different preincubation times (0–30 min), with a two-step incubation scheme, as described above.”
# P-glycoprotein (P-gp) = tested on: P-glycoprotein (P-gp); parameters: method as in Lee et al. [2017]; conditions: ref Lee et al. [2017]; cited from earlier work
# T4 sequence (P05181 whole entry): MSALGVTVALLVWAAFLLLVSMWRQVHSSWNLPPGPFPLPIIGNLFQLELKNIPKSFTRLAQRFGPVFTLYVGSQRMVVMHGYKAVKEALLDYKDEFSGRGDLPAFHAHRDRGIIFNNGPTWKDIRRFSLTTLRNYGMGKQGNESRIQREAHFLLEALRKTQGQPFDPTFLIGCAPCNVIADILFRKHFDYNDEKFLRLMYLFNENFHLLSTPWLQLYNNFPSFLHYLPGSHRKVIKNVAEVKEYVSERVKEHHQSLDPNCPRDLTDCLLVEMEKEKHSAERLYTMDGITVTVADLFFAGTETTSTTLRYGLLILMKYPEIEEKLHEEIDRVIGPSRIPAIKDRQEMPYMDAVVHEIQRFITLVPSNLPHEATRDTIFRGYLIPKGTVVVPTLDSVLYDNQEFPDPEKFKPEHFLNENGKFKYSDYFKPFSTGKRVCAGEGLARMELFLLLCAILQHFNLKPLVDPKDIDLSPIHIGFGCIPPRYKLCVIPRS
# T1 sequence (P08684 whole entry): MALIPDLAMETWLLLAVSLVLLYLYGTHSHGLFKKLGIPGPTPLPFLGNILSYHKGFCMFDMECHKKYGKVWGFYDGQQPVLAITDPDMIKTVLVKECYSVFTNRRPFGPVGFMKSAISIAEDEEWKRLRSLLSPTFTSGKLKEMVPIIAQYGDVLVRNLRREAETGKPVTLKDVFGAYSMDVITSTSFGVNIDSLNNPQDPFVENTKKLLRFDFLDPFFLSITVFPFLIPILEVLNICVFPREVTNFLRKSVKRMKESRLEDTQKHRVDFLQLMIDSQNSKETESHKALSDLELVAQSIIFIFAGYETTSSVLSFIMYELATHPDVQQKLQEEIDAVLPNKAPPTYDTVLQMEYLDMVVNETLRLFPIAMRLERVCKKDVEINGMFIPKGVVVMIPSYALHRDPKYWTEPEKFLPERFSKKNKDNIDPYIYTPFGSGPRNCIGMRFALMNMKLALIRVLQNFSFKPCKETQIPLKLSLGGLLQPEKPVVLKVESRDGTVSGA
# T7 sequence (P33261 whole entry): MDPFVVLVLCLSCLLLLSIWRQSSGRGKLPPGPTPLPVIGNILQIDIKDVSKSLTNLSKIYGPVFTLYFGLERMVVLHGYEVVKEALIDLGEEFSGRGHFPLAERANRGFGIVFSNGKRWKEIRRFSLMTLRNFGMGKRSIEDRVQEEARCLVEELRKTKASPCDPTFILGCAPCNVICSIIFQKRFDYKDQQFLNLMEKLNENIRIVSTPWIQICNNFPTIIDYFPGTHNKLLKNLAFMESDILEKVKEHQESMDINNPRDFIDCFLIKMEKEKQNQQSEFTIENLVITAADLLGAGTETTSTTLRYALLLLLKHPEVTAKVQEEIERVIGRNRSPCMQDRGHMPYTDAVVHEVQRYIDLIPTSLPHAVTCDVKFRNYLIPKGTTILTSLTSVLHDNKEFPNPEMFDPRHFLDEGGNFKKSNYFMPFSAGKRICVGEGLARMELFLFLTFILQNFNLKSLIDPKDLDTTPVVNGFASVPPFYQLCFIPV
# T6 sequence (P11712 whole entry): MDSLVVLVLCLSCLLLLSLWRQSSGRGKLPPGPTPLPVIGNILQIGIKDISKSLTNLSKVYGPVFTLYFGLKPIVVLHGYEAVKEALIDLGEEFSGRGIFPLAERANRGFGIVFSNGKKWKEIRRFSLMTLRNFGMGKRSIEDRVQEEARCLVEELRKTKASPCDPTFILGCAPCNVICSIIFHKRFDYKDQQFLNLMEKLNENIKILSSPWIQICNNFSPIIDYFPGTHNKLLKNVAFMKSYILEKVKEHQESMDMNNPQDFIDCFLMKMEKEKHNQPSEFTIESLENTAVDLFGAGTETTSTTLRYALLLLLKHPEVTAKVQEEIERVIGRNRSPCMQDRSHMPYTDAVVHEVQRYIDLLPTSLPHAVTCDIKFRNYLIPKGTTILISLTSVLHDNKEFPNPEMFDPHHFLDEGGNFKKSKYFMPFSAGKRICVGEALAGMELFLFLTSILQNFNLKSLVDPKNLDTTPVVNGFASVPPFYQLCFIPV
# T5 sequence (P10635 whole entry): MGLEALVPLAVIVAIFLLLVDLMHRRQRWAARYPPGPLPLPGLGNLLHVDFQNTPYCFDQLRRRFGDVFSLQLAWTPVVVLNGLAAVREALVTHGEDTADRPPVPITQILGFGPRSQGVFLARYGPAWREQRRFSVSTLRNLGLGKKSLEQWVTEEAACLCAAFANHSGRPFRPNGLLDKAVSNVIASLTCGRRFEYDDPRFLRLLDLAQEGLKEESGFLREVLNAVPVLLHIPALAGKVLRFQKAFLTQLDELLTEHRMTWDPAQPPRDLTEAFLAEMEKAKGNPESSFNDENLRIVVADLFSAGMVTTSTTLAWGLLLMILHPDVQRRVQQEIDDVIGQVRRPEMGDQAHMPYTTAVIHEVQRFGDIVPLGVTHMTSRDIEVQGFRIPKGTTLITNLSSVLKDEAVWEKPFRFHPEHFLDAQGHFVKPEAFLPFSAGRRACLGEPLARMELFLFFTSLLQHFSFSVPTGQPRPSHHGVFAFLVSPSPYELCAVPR
smiles,measurement,setting,value
C[C@H]1C(=O)CC[C@@H]2[C@]1(C)CC[C@H]1[C@@]2(C)CC[C@@]2(C)[C@@H]3CC(C)(C)CC[C@]3(C)CC[C@]12C [Friedelin],Mode of inhibition of CYP3A4,CYP3A4 [1]; Lineweaver–Burk plots,noncompetitive
same,activity at 100 μM,"CYP3A4 [1]; human, pooled human liver microsomes, pH 7.4, probe testosterone (6β-hydroxylation), Friedelin 100 μM, testosterone 6β-hydroxylation, read-out: CYP3A4 activity, % of control activity",7.5%
same,Ki,"CYP3A4 [1]; secondary Lineweaver–Burk plot, testosterone 20–100 μM",6.16 µM
same,IC50,CYP3A4 [1]; testosterone 6β-hydroxylation,10.8 µM
same,Inhibition of CYP1A2 activity,CYP1A2,could not inhibit
same,Inhibition of CYP2A6 activity,CYP2A6,could not inhibit
same,Mode of inhibition of CYP2E1,CYP2E1 [2]; Lineweaver–Burk plots,competitive
same,activity at 100 μM,"CYP2E1 [2]; human, pooled human liver microsomes, pH 7.4, probe chlorzoxazone (6-hydroxylation), Friedelin 100 μM, chlorzoxazone 6-hydroxylation, read-out: CYP2E1 activity, % of control activity",18.9%
same,IC50,CYP2E1 [2]; chlorzoxazone 6-hydroxylation,22.5 µM
same,Ki,"CYP2E1 [2]; secondary Lineweaver–Burk plot, chlorzoxazone 25–200 μM",18 µM
same,Inhibition of CYP2D6 activity,CYP2D6,could not inhibit
same,Inhibition of CYP2C9 activity,CYP2C9,could not inhibit
same,Inhibition of CYP2C19 activity,CYP2C19,could not inhibit
same,Inhibition of CYP2C8 activity,CYP2C8,could not inhibit
same,Time-dependent inhibition of CYP3A4 activity,"CYP3A4 [3]; Friedelin 20 μM, 30 min preincubation with HLM and NADPH",decreased with the incubation time
same,kinact/KI,"CYP3A4 [3]; human, human liver microsomes, HLM, Friedelin 0–50 μM, preincubation 0–30 min with NADPH, read-out: Kinact/Ki for CYP3A4 inactivation (converted)",80.7 M⁻¹ s⁻¹
same,CYP3A4 inactivated each minute (Kinact),CYP3A4 [3]; saturating concentration of Friedelin incubated with HLM,approximately 5.9%
same,Time-dependent inhibition of CYP2E1 activity,CYP2E1 [4],not affected
same,Effect on ATPase activity of P-glycoprotein,P-glycoprotein (P-gp),could suppress ATPase activity
